Measurements taken from patent US20090117593A1, “T. Cruzi-derived neurotrophic agents and methods of use therefor” (Tufts University, priority 2006, published 2009).
Entries after “also recorded” stand apart in the source; their conditions may differ.

How the values were obtained:
IL-6 [1] = assay: IL-6 secretion by PBMC (ELISA); format: cell-based, human; settings: 24 hours
Method: (§1) Primary cultures of human intestinal microvascular endothelial cells (HIMEC) isolated from normal jejunal mucosa/submucosal tissue were prepared as described (Strong et al., Gastroenterology 114:1244-1256 (1998)). The HIMEC were cultured in fibronectin-coated plasticware in MCDB medium (Sigma) supplemented with 20% FBS, 90 μg/ml heparin and 50 μg/ml endothelial cell growth factor (Sigma). T-24 cells (ATCC Accession No. HTB-4) were cultured in M199 medium supplemented with 10% FBS. PBMC were purified by Ficoll-Paque gradient as described (Current Protocols in Immunology, pp 7.1.1-7.1.2). Vero cells (ATCC Accession No. CCL-81) were grown in RPMI medium with 5% Nu serum and infected with the Silvio X-10/4 of T. cruzi as described previously (Chuenkova et al., J. Exp. Med. 181:1693-1703 (1995)).
Endothelial cells and T-24 cells were plated on 24-well plates at a density of 1×10^3 cells/well, while peripheral blood mononuclear cells (PBMC) were plated in the similar wells at 1×10^6/well. Triplicat cultures of cells were incubated test agents for a predetermined amount of time. […] Cytokines and chemokines released in the culture supernatants were measured by ELISA assay following the instructions of the manufacturer (Endogen). The cytokines tested were IL-1β, IL-4, IL-8, […], IL-12, IFN-γ, TNF-α, and the chemokines RANTES and MCP-1. Negative controls were cells incubated in medium containing polymixin B at 10 μg/ml, and positive controls were cells incubated with bacterial LPS at the low ng/ml range (for PBMC or HIMEC) or in the μg/ml range for carcinoma T-24 cells. In some experiments, IL-1β or TNFα were used as positive control for cytokine release.
TR peptides (Table 2) were synthesized at the Tufts Synthesis Facility (Boston, Mass.). Each peptide was purified by HPLC, and the number of amino acids and molecular weight of each peptide verified by mass spectrometry. Peptides were dissolved in growth medium (10% FCS in RPMI) and added at various concentrations to 1×10^6 PBMC/well in 24-well plates. After 24 hours, IL-6 was assayed by ELISA in the conditioned supernatants.

[2] = test system: PC12 cells or Schwann cells; assay: Inhibition of apoptosis of PC12 cells or Schwann cells by synthetic peptides; format: cell-based
PC12 cells [3] = format: cell-based; settings: serum-free RPMI/0.2% BSA, collagen coated dishes, 16-17 hours
PC12 cells [4] = assay: Protection of PC12 cells from apoptosis induced by trophic factor withdrawal (DAPI, TUNEL); format: cell-based; settings: serum-free RPMI-1640/0.2% BSA, 17 hours, DAPI or TUNEL
Excerpt: PC12 cells were obtained from ATCC (Manassas, Va. (Accession No. CRL-1721)) and cultured on collagen-coated dishes in RPMI 1640 supplemented with 10% horse serum and 5% fetal bovine serum (Greene, L., and Tishler, A., Proc. Natl. Acad. Sci. USA, 73:2424-2428 (1976)). For differentiation and survival experiments, cells were washed three times in serum-free RPMI/0.2% BSA, plated in the same medium in collagen-coated plastic dishes at 2×10^5/ml, without and with growth factors, TS, recombinant proteins, synthetic peptides, for the time and concentrations indicated in the Figures.
Cell staining with 4,6-diamino-2-phenylindole (DAPI). Cells were fixed with 4% formaldehyde in PBS for 5 minutes, washed with PBS, stained with 10 μg/ml DAPI (Sigma) for 2 minutes, washed with PBS, and visualized under UV light using a fluorescent microscope. About 300-400 cells were examined under the microscope to determine the percentage of apoptotic cells.
Cell DNA nick end labeling (TUNEL) (Gavrieli, Y. et al., J. Cell. Biol., 119:493-501 (1992)) assay was performed using a kit purchased from Boehringer Mannheim as described by the manufacturer.
Protection against apoptosis of PC12 cells in serum-free medium containing a test agent (agent N) (e.g., protection induced by TS, TS fragments, NGF or other growth factors), was calculated by the formula: 100%−[(apoptosis(%) of cells kept in RPMI containing test agent N÷apoptosis (%) of cells kept in RPMI)×100%]. Testing the effect of Wortmannin (Sigma) and LY294002 (Sigma) in inhibiting the neuroprotection of TS was performed following the protocol described by others (Yao, R., and Cooper, G., Science, 267:2003-2006 (1995); D'Mello, et al., J. Neurosci., 17:1548-1560 (1997)). In brief, PC12 cells were switched from growth medium to RPMI without and with TS or various other growth factors. After 24 hours, Wortmannin and LY294002 were added to the cultures. After another 24 hours, cells were examined for apoptosis by the DAPI assay, as above.

IL-6 [5] = assay: IL-6 secretion by normal human neutrophils; format: cell-based
IL-6 [6] = assay: IL-6 secretion by HIMEC (ELISA); format: cell-based, human; settings: 24 hours
Method: as §1
Endothelial cells and T-24 cells were plated on 24-well plates at a density of 1×10^3 cells/well, while peripheral blood mononuclear cells (PBMC) were plated in the similar wells at 1×10^6/well. Triplicat cultures of cells were incubated test agents for a predetermined amount of time. […] Cytokines and chemokines released in the culture supernatants were measured by ELISA assay following the instructions of the manufacturer (Endogen). The cytokines tested were IL-1β, IL-4, IL-8, IL-1, IL-12, IFN-γ, TNF-α, and the chemokines RANTES and MCP-1. […]

PC12^TrkA cells = assay: Survival of PC12^TrkA cells in serum-free medium (MTT, DAPI); format: cell-based; settings: peptides 10 μM, PDNF 500 ng/ml, NGF 30 ng/ml, 48 hours to 5 days
Method: PC12^nnr5 and PC12^TrkA cells were grown in RPMI with 10% FCS and 5% horse serum as described earlier (Green et al., J. Cell Biol. 102:830-843 (1986); Chuenkova and Pereira, Mol. Biol. Cell 11: 1487-1498 (2000)). Two approaches were used to study neurite extension: 1) Plating cells (1×10^5 cells/ml) on plastic wells (LABTECH 16-well slides, Nalge Nunc International, Naperville, Ill.) coated with synthetic peptides (100 μg/ml water, 4° C., overnight) or rat tail collagen (1 mg/ml PBS, 4° C., overnight). 2) Adding peptides in solution to cells plated on uncoated substratum. Cells were grown in 1% FCS-containing RPMI for 72 hours, and reacted with 0.5 mg/ml MTT (3-[4,5-dimethylthiazol-2-yl]-2,5-diphenyltetrazolium bromide) (SIGMA, St. Louis, Mo.) in serum-free medium for 1 hour at 37° C. Light microscopy was used to visualize viable cells (i.e., containing reduced insoluble formazan) with or without extended neurites (>5 μm in length). Cell viability was also determined using the CELLTITER 96 assay (Promega, Madison, Wis.) as follows: Cells, plated at 2×10^5/ml, were treated with peptides in serum-free medium for different times and exposed to CELLTITER 96 Aqueous One Solution for 1 hour at 37° C. 2) Apoptotic cells were identified by staining with DAPI (250 ng/ml) (SIGMA) 48 hours after cells were exposed to serum-free medium with or without additives in solution, as described earlier (Chuenkova and Pereira, Mol. Biol. Cell 11:1487-1498 (2000)). […]

Erk1/2 = Erk1/2 phosphorylation in PC12 cells; format: cell-based; settings: 5 minutes; control peptides 10 μM
Method: Activation state of TrkA, Erk1/2 and Akt kinases and transcription factor CREB was analyzed by assessing phosphorylation by Western blot with appropriate phospho-specific antibodies. For this, cells were plated in complete medium at a density of 3×10^5 cells/ml overnight on 6-well plates (BECTON DICKINSON LABWARE, Franklin Lakes, N.J.). The medium was changed to serum-free medium and the cells cultured for an additional 24 hours to reduce background phosphorylation. […] Antibody reaction was visualized by horseradish peroxidase (HRP)-conjugated secondary antibody and enhanced chemiluminescence kit (ECL). Some blots were stripped in appropriate buffer (50 mM Tris HCl, pH 7.8, 2% SDS, 1% β-mercaptoethanol) at 50° C. for 60 minutes and re-probed with p42/44MAPK, Akt or CREB antibody to ensure equal loading of proteins. For immunoprecipitation experiments, cell lysates were pre-adsorbed on protein G-Sepharose for 1 hour at 4° C. and after brief centrifugation supernatants were incubated with anti-TrkA antibody for 24 hours at 4° C. with gentle rocking. Formed immunocomplexes were captured on protein G-Sepharose, eluted with SDS-PAGE sample buffer and analyzed by immunoblotting with antibody against phospho-TrkA receptor.

[7] = test system: primary cultures of rat Schwann cells; settings: cited from earlier work

Row | Substance | IL-6 secretion by PBMC (IL-6 [1]) | effect of PI-3 kinase inhibitor LY294002 on the apoptosis suppressing effect of the peptide [2] | suppression of apoptosis of PC12 cells or Schwann cells [2] | neurite outgrowth in PC12 cells (PC12 cells [3]) | further results
1 | DSSAHGAPSTPA [peptide TR1] | less active |  |  |  | 
2 | DSSAHGAPSTPADSSAHGTPSTPV [TR2] | less active |  |  |  | 
3 | DSSAHGAPSTPADSSAHGTPSTPVDSSAHGTPSTPA [TR3] | less active |  |  |  | 
4 | DSSAHGAPSTPADSSAHGTPSTPVDSSAHGTPSTPADSSAHSTPSTPA [TR4] | active in promoting IL-6 release |  |  |  | 
5 | DSSAHGAPSTPADSSAHGTPSTPVDSSAHGTPSTPADSSAHSTPSTPADSSAHSTPSTPA [TR5] | active in promoting IL-6 release |  |  |  | 
6 | GNASQNYWEDAYRC [CYN2] |  | inhibited by the PI-3 kinase inhibitor LY294002 | suppressed apoptosis but was less active |  | 
7 | QPLRRQRVVVVPLSPRLVLLAFCRQRLPLKRMGGSYRCVNASTAN [peptide C44] |  | inhibited by the PI-3 kinase inhibitor LY294002 | potent suppressors of apoptosis | had direct neurotrophic activity; also recorded: induce dose dependent outgrowth of neurites | protection of PC12 cells from apoptosis induced by trophic factor withdrawal (PC12 cells [4]): protected PC12 cells from apoptosis
8 | RQRLPKRMGGSYRC [peptide C14] |  | inhibited by the PI-3 kinase inhibitor LY294002 | potent suppressors of apoptosis | had direct neurotrophic activity; also recorded: induce dose dependent outgrowth of neurites | protection of PC12 cells from apoptosis induced by trophic factor withdrawal (PC12 cells [4]): protected PC12 cells from apoptosis
9 | RQRLPKRMGGSYRCVNASTAH [CFN1] |  | inhibited by the PI-3 kinase inhibitor LY294002 | potent suppressors of apoptosis | had direct neurotrophic activity | 
10 | TNF-α |  |  |  |  | IL-6 production by normal human neutrophils (IL-6 [5]): did elicit secretion of IL-6
11 | VCNA: neuraminidase from Vibrio cholera [reference compound] |  |  |  | did not induce neurite outgrowth; also recorded: does not induce neurite outgrowth | IL-6 secretion by HIMEC (IL-6 [6]): did not stimulate detectable IL-6 secretion; protection of PC12 cells from apoptosis induced by trophic factor withdrawal (PC12 cells [4]): did not
12 | VNASTAN [peptide CYFN] |  | inhibited by the PI-3 kinase inhibitor LY294002 | did not inhibit apoptosis |  | survival of PC12^TrkA cells in serum-free medium (PC12^TrkA cells): did not significantly promoted cell survival; Erk1/2 phosphorylation in PC12 cells (Erk1/2): did not activate Erk
13 | YSVDDGETWE [peptide B2] |  |  | did not inhibit apoptosis | did not induce neurite outgrowth; also recorded: did not promote neurite outgrowth | survival of PC12^TrkA cells in serum-free medium (PC12^TrkA cells; listed as BR): inactive; also recorded: did not significantly promoted cell survival
14 | lysophosphatidic acid |  |  |  |  | dose reported to be active as Schwann cell survival factor [7]: ≥ 10 nM
